The subject of one series is zebrafish embryos. Kind of series: Zebrafish embryo myofiber damage, myosin heavy chain staining. The note with it: for fiber diameter in zebrafish embryos: 2.5 μM compound alone.
A further series has as its system atrogin-1 mRNA. Description: Atrogin-1 mRNA level in myotubes by real-time PCR. The series is classed as cell-based, mouse. The note with it: for atrogin-1 expression in myotube culture: 2.5 μM compound alone, mRNA and protein (FIGS. 7C-7D); for atrogin-1 mRNA expression: 30 μM compound.
The subject of the next series is atrogin-1 protein. Kind of series: Atrogin-1 protein in myotubes by Western blotting. As to conditions: for atrogin-1 protein expression: 30 μM compound. It is filed as cell-based, mouse. How it is done: Western blotting: Cultured cells after treatment were collected at specific times and solubilized in RIPA lysis buffer (50 mM Tris-HCl, pH 7.4, 150 mM NaCl 1% NP-40, 0.5% sodium deoxycholate, 0.1% SDS (Boston Bioproducts)), protease (Roche) and phosphatase (Sigma) inhibitor cocktail). Proteins were separated by SDS-PAGE, transferred to PVDF membranes and visualized by Western blotting using alkaline phosphatase-based CDP-star chemiluminescent detection according to the manufacturer's protocol (Applied Biosystems). Polyclonal anti-atrogin-1 antibody was used as described in Bdolah et al. (Am. J. Physiol. Reg. Integr. Comp. Physiol. 292:R971-R976, 2007). Anti-actin and dynein antibodies were from Santa Cruz Biotechnology.

Series [1] deals with myotubes derived from atrogin-1 wildtype mice (+/+). Description: Myotube diameter and morphology, myotubes from wildtype mice. As to conditions: for fiber diameter in myotube culture: 2.5 μM compound alone. It is filed as cell-based, mouse. As to the method: (§1) Myotube fiber size: Size was quantified by measuring a total of 200 tube diameters as described in Sandri et al. (Cell 117:399-412, 2004). Briefly, muscle fiber size from four random fields at 100-fold magnification was measured using IMAGE software (Scion). All data were expressed as the mean +/− S.E.M.

The next series deals with zebrafish atrogin-1. Kind of series: Zebrafish atrogin-1 protein by Western blotting. The series is classed as in vivo, zebrafish (Danio rerio). As to conditions: 12 hours; for atrogin-1 expression in zebrafish embryos: 2.5 μM compound alone. As to the method:
Western blotting: Zebrafish embryos were homogenized in SDS sample buffer (30 embryos/30 μL of sample buffer) with microfuge pestle until the lysate became uniform in consistency and there was no longer stringy. The lysate was boiled for 5 minutes and centrifuged supernatant was processed for Western blotting (Hanai et al., J. Cell Biol. 158:529-539, 2002). […] (GAPDH) antibody was from Santa Cruz Biotechnology.
A general note: A western blot detects proteins with antibodies after separation by electrophoresis.

For series [2], the system named is myotubes derived from atrogin-1 knockout mice (−/−). Description: Myotube diameter and morphology, myotubes from atrogin-1 knockout mice. The series is classed as cell-based, mouse. As to the method:
as §1

Where [3] appears, read: perillyl alcohol 1.0 mM for 24 hours, wildtype myotubes.
The mark [4] stands for this setting: lovastatin 24 hours, wildtype cultures.
Setting [5] is: 2.5 μM compound with lovastatin, 24 hours, myotube culture.
Where [6] appears, read: mevalonate 100 μM + lovastatin 1 μM, 24 hours.

These results are taken from patent US20120171286A1, “METHODS AND COMPOSITIONS FOR THE TREATMENT AND DIAGNOSIS OF STATIN-INDUCED MYOPATHY” (Beth Isreal Deaconess Medical Center, priority 2009, published 2012).

Protocol for zebrafish embryos: Zebrafish lines and maintenance: Adult zebrafish (Danio rerio) were maintained as described under standard laboratory conditions at 28.5° C. in a 14 hour light/10 hour dark cycle (Westerfield, in Institute of Neuroscience University of Oregon, Eugene, Oreg.). Developmental stages were determined by embryo morphology and hours post fertilization (hpf) (Kimmel et al., Dev. Dyn. 203:253-310, 1995). To examine the effects of lovastatin, the embryos at 20-24 hpf were immersed in the embryonic water (500 μM NaCl, 170 μM KCl, 330 μM CaCl2, and 330 μM MgSO4) at a concentration of 0.005-10 μM lovastatin (mevinolin) (Sigma) including 0.003% 1-phenyl-2-thiourea (Sigma) to inhibit pigmentation in a 24-well plate. After 32 hpf, the embryos were fixed by 4% paraformaldehyde in PBS.
Whole zebrafish antibody staining: Zebrafish embryos were fixed by 4% paraformaldehyde in PBS overnight. After fixation, the embryos were washed by PBS and stored for at least 1 hour at −20° C. in methanol, and permeabilized for 30 minutes at −20° C. in acetone. Embryos were incubated with blocking buffer (1% BSA, 0.1% Tween-20 in PBS), and incubated with diluted primary antibody, anti-slow twitch myosin F59 (1:100; Developmental Studies Hybridoma Bank (DSHB), Department of Biological Sciences, University of Iowa) (Crow et al., Dev. Biol. 118:333-342, 1986; Devoto et al., Development 122:3371-3380, 1996) in blocking solution for overnight at 4° C. Staining was detected by using Alexa Fluor(R) 594 goat anti-mouse IgG (H+L) (1:200; Invitrogen) in blocking solution for 4 hours at room temperature (Birely et al., Dev. Biol. 280:162-176, 2005).

With `C=C(C)[C@@H]1CC=C(CO)CC1` [Perillyl alcohol, perillyl alcohol], the “muscle fibers in zebrafish embryos” value in the series with zebrafish embryos (0.1 to 1.0 mM perillyl alcohol for 12 hours) is “dramatic thinning of muscle fibers and morphologic damage”. Also, in the series with atrogin-1 mRNA (setting [3]), the “atrogin-1 mRNA levels” value is recorded as “induction”. Besides, the atrogin-1 protein levels entry in the series on atrogin-1 protein (setting [3]) was “induction”. The damage of myotubes result in series [1] (setting [3]) was “marked damage”.
Take `CC(C)=CCCC(C)=CCCC(C)=CCO` [farnesol]: the “fiber diameter in zebrafish embryos” value in the series on zebrafish embryos (12 hours) was “neither 2.5 μM farnesol nor 2.5 μM geranylgeranol alone had any effect”. The “atrogin-1 expression in myotube culture” value with atrogin-1 mRNA (24 hours) is recorded as “neither 2.5 μM farnesol nor 2.5 μM geranylgeranol alone had any effect”. In addition, the “fiber diameter in myotube culture” value in series [1] (24 hours) was “neither 2.5 μM farnesol nor 2.5 μM geranylgeranol alone had any effect”. In addition, the “atrogin-1 expression in zebrafish embryos” value in the series on zebrafish atrogin-1 is “neither 2.5 μM farnesol nor 2.5 μM geranylgeranol alone had any effect”.
In the case of `CC[C@H](C)C(=O)O[C@H]1C[C@@H](C)C=C2C=C[C@H](C)[C@H](CC[C@@H]3C[C@@H](O)CC(=O)O3)[C@H]21` [lovastatin], the “muscle phenotypes (longitudinal muscle fiber staining, myosin heavy chain antibody)” value in the series with zebrafish embryos (lovastatin alone, zebrafish in vivo model) is recorded as “clear dose-dependent muscle phenotypes”. Also, in the series with zebrafish embryos (zebrafish embryos, higher concentrations), the “lovastatin concentration giving class 2 changes (fiber thinning, attenuation of MHC staining)” value was in the range of 0.05 to 0.5 µM. Besides, the “lovastatin concentration giving class 1 changes (bowing, gap formation, fiber disruption)” value in the series on zebrafish embryos (zebrafish embryos, low concentration) lay within 0.025 to 0.05 µM. Further, the “lovastatin concentration giving class 3 changes (irregular somite boundries)” value with zebrafish embryos (zebrafish embryos, maximal concentration) was 1.0 to 5.0 µM. Besides, in the series on atrogin-1 mRNA (setting [4]), the “atrogin-1 mRNA levels” value was “dose-dependent increase”. In addition, the atrogin-1 protein levels entry with atrogin-1 protein (setting [4]) is listed as “dose-dependent increase”. In addition, the myotube diameter result is reported as “resistant to lovastatin-induced reduction in myotube diameter” in series [2] (0.5 to 1.0 μM lovastatin for 24 hours, atrogin-1 knockout cultures) and “dose-dependent reduction in myotube diameter” in series [1] (0.5 to 1.0 μM lovastatin for 24 hours, wildtype myotubes).
For `CC(=O)N[C@@H](CSC/C=C(\C)CC/C=C(\C)CCC=C(C)C)C(=O)O` [AFC, N-acetyl-S-farnesyl-L-cysteine], the “atrogin-1 mRNA expression” value in the series on atrogin-1 mRNA (24 hours) is recorded as “no effect”. In addition, the atrogin-1 protein expression entry in the series on atrogin-1 protein (24 hours) is given as “no effect”. The “myotube diameter / myotube integrity” value in series [1] (30 μM compound, 24 hours, wildtype myotubes) is reported as “no effect”.
Turning to `CC(C)=CCC/C(C)=C/CC/C(C)=C/CC/C(C)=C/CO` [geranylgeranol], the “fiber diameter in zebrafish embryos” value in the series on zebrafish embryos (12 hours) is “neither 2.5 μM farnesol nor 2.5 μM geranylgeranol alone had any effect”. Further, in the series on zebrafish embryos (2.5 μM compound with lovastatin, 12 hours), the “fiber damage in zebrafish embryos” value is listed as “reduced the degree”. In the series on atrogin-1 mRNA (24 hours), the “atrogin-1 expression in myotube culture” value is “neither 2.5 μM farnesol nor 2.5 μM geranylgeranol alone had any effect”. The “degree of atrogin-1 mRNA induction” value in the series with atrogin-1 mRNA (setting [5]) is “reduced the degree”. Also, the “degree of atrogin-1 protein induction” value in the series on atrogin-1 protein (setting [5]) is recorded as “reduced the degree”. Also, the “fiber diameter in myotube culture” value in series [1] (24 hours) is “neither 2.5 μM farnesol nor 2.5 μM geranylgeranol alone had any effect”. For the same compound, the “fiber damage in myotube culture” value in series [1] (2.5 μM compound with lovastatin, 24 hours) was “reduced the degree”. Also, in the series with zebrafish atrogin-1, the “atrogin-1 expression in zebrafish embryos” value was “neither 2.5 μM farnesol nor 2.5 μM geranylgeranol alone had any effect”. Moreover, the “degree of atrogin-1 induction in zebrafish embryos” value in the series with zebrafish atrogin-1 (2.5 μM compound with lovastatin) is recorded as “reduced the degree”.
Take `CC(O)(CCO)CC(=O)O` (stereo not shown) [mevalonate]: the “development of zebrafish myofiber damage” value in the series with zebrafish embryos (100 μM mevalonate + 0.05 to 1.0 μM lovastatin, 12 hours) was “completely prevented”. For the same compound, the “atrogin-1 mRNA induction caused by lovastatin” value in the series with atrogin-1 mRNA (setting [6]) is listed as “completely prevented”. In addition, the “atrogin-1 protein induction caused by lovastatin” value in the series on atrogin-1 protein (setting [6]) was “completely prevented”. The “reduction of myotube diameter caused by lovastatin” value in series [1] (setting [6]) is given as “completely prevented”. In series [1] (mevalonate 100 μM alone, 24 hours), the “effect on the muscle cultures when administered alone” value was “no effect”. In addition, in the series on zebrafish atrogin-1 (100 μM mevalonate + 0.05 to 1.0 μM lovastatin), the “zebrafish atrogin-1 induction” value is given as “completely prevented”.
As for `CC(=O)N[C@@H](CSC/C=C(\C)CC/C=C(\C)CC/C=C(\C)CCC=C(C)C)C(=O)O` [AGGC, N-acetyl-S-geranylgeranyl-L-cysteine], the “atrogin-1 mRNA expression” value in the series on atrogin-1 mRNA (24 hours) is on record as “induction”. The atrogin-1 protein expression result in the series on atrogin-1 protein (24 hours) is given as “induction”. Also, the effect on myotubes entry in series [2] (30 μM AGGC, 24 hours, atrogin-1 knockout myotubes) is recorded as “resistant to this reagent”.
